Data on three compounds can be found in patent publication US11906523B2, “Signaling conjugates and methods of use” (VENTANA MEDICAL SYSTEMS, INC., priority 2012, dated 2024).

Data set [1] is described as follows: UV-Vis absorbance spectra of signaling conjugates and chromophores. In kind it is physicochemical.
Description: The wavelength at which the maximum fraction of light is absorbed by a substance is referred to as λmax. Because this wavelength is absorbed to the greatest extent, it is typically referred to as the absorbance wavelength. […] While λmax designates the wavelength of maximum absorption, the FWHM designates the breadth of the spectral absorbance.
Trace A corresponds to the signaling conjugate used for FIG. 15(A) and trace B corresponds to the signaling conjugated used for FIG. 15(B); note that each signaling conjugate was analyzed with spectrometry in solution prior to staining and on the slide subsequent to having detected the HER2 (the dashed traces representing the spectra obtained on the tissue).
Data set [2] can be described thus: UV-Vis spectra of fast red and fast blue. In kind it is physicochemical. The conditions noted are these: ethyl acetate solutions, FIG. 8(B). An excerpt: While providing a range of new colors for the recognition of targets within biological samples is useful alone, the presently disclosed signaling conjugates are particularly useful in multiplexed assays, as well as assays using translocation probes. FIG. 8(A) is a photomicrograph of a dual stain of two gene probes on section of lung tissue testing for ALK rearrangements associated with non-small cell lung cancer. FIG. 8(B) illustrates UV-Vis spectra of fast red and fast blue in ethyl acetate solutions. The 3′ probe was detected using fast red and the 5′ probe was detected using fast blue. FIGS. 9(A) and 9(B) illustrate the traces of FIG. 8(B) separately. […] Comparing this range to the color wheel, the expected color corresponding to the spectral absorption characteristic would be either red or orange. The range of absorption is so large it essentially covers all of those wavelengths one would expect to result in a red or an orange color. […] Again, referring to the color wheel in FIG. 6(A), the absorption from 525-625 nm covers nearly half of the color wheel with blue, indigo, and violet being complementary.

[3] abbreviates: absorption spectrum of signaling conjugate.

As for `CN(C)c1ccc2c(-c3ccc(C(=O)NCCc4ccc(O)cc4)cc3C(=O)[O-])c3ccc(N(C)C)cc3[o+]c2c1` [5-TAMRA-tyramide conjugate], in data set [1] (setting [3]), the “full width of the peak at the half maximum absorbance (FWHM)” value is on record as “approximately 40 nm” and the λmax is reported as 552 nm.
For the compound `O=C([O-])C1=NN(c2ccc(S(=O)(=O)[O-])cc2)C(=O)C1N=Nc1ccc(S(=O)(=O)[O-])cc1.[Na+].[Na+].[Na+]` (stereo not shown) [Tartrazine], the λmax entry in data set [1] (diazo chromophore moiety itself) is “about 427 nm”.
In the case of Fast blue, in data set [2], the “strong absorption wavelength range” value was 525-625 nm.
